From PubChem BioAssay (NCI) come the findings set out here.

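Briefly, cells in 96-well plates were exposed to five compound concentrations for 48 h, and endpoints were estimated by linear interpolation. GI50 is the concentration that inhibits growth by half. The concentration for full growth arrest is given as TGI.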

Experiment in all cases: NCI anticancer screen, dose series, 48 h
For test [1], the system named is A549 NSCLC.
The test system of test [2] is COLO 205 colon.
The test system of test [3] is EKVX NSCLC.
The subject of test [4] is IGROV1 ovarian.
The subject of test [5] is MALME-3M melanoma.
The test system of test [6] is NCI-H23 lung.
The test system of test [7] is OVCAR-3 ovarian.
Test [8] relates to RXF 393 renal.
Test [9] relates to SK-MEL-28 melanoma.
For test [10], the system named is SK-MEL-5 melanoma.

For `O=[N+]([O-])c1ccc(/C=N\Nc2ccc([N+](=O)[O-])cn2)cc1`, the TGI in [1], in test [2], in [3], in [4], in test [5] and in test [6] was over 100 µM in each case. Moreover, the TGI in test [7], in test [8], in [9] and in test [10] was over 100 µM throughout.
Take `O=C(O)CC(C(=O)O)C1c2ccccc2-c2ccccc21` (stereo not drawn): the TGI in [1], in [2], in test [3], in [4], in test [5] and in test [6] was over 100 µM each time. Besides, the TGI in test [7], in test [8], in test [9] and in test [10] was over 100 µM throughout.
Take `CC(C)=CCc1c(O)ccc2c1OC1c3ccc(O)c(CC=C(C)C)c3OCC21` (stereo not drawn): the TGI is 26.5 µM in test [1]; 33 µM in [2]; 26.8 µM in test [3]; 25.8 µM in test [4]; 33.6 µM in test [5]; over 55.1 µM in [6]. The TGI in [7] was determined as 27 µM; in test [8], 22.1 µM; in test [9], 28.7 µM; in [10] it was 17.8 µM.
With `CN1CCC(C(=O)NNc2ccccc2)CC1`, the TGI is over 86.8 µM in test [1]; 10.2 µM in test [2]; over 100 µM in test [3]; over 100 µM in test [4]; 98.5 µM in test [5]; over 100 µM in [6]. Also, the TGI in test [7] is over 100 µM; in [8], over 100 µM; in test [9] it was over 88.1 µM; in test [10] it was 45.6 µM.
Regarding `N=C(N)c1ccc(-c2ccc(-c3cncc4ccccc34)s2)cc1F`, the GI50 was 1.87 µM in test [2]; 1.74 µM in test [5]; 1.73 µM in [7]; 1.75 µM in test [8]; 1.75 µM in test [9]; 1.75 µM in test [10]. Also, the TGI came to 3.94 µM in [2]; 3.51 µM in test [5]; 3.24 µM in test [7]; 3.67 µM in test [8]; 3.41 µM in [9]; 3.26 µM in test [10].
With `COc1cc(C(C)(C)C)cc(OC)c1C(O)(c1c(OC)cc(C(C)(C)C)cc1OC)c1c(OC)cc(C(C)(C)C)cc1OC`, the GI50 in [1] was 0.324 µM; in test [2] it was 0.188 µM; in test [4], 0.316 µM; in test [5], 0.234 µM; in test [7], 0.278 µM; in test [8], 0.324 µM. Moreover, the GI50 in [10] is 0.236 µM. Moreover, the TGI in [1] came to 1.23 µM; in test [2], 0.34 µM; in test [4], 0.873 µM; in [5] it was 0.683 µM; in test [7], 0.894 µM; in test [8], 0.871 µM. The compound also registered a TGI in test [10] of 0.552 µM.
For `FC(F)(F)c1ccc2c(c1)nc(Cc1ccc(Cl)c(Cl)c1)n2CC1CCCN2CCCCC12` (stereo not drawn), the TGI in [1] was 44.2 µM; in [2], 33.5 µM; in test [3], 80.3 µM; in test [4], over 100 µM; in test [5] it was 28.6 µM; in test [7] it was 82.3 µM. For the same compound, the figures for the TGI in [8], in test [9] and in test [10] were over 100 µM, 53.8 µM and 30.3 µM, respectively.
As to `CCN=C=NCCCN(C)C`, the TGI in test [1], in test [2], in test [3], in test [4], in test [5] and in test [6] was over 100 µM each time. The TGI in test [7], in [8], in test [9] and in test [10] was over 100 µM each time.
With `C=C(CN(C)C)C(=O)c1ccc(C)cc1C`, the TGI in [1] was 63.1 µM; in [2], 11.3 µM; in [3], 40 µM; in [4], 17.7 µM; in [5], 20.2 µM; in test [6], 27.3 µM. Further, the TGI in [7] was determined as 21.3 µM; in test [8], 9.4 µM; in [9], 20.4 µM; in [10] it was 28.8 µM.
With `O=C(/C=c1\oc(=O)/c(=C/C(=O)c2ccc(Cl)cc2)oc1=O)c1ccc(Cl)cc1`, the TGI in [1], in [2], in [3], in test [4], in test [5] and in test [6] was over 100 µM in each case. The TGI in test [7], in test [8], in [9] and in test [10] was over 100 µM each time.
With `C/C1=N\NC(=O)c2ccccc2C(=O)N/N=C(\C)c2cccc1n2.O=[N+]([O-])[O-].[Zn+2]`, the TGI in test [1], in [2], in test [3], in test [4], in test [5] and in [6] was over 100 µM throughout. For the same compound, the TGI in test [7], in test [9] and in test [10] was over 100 µM each time.
For `c1ccc(-n2cnnc2-c2nsc3ccccc23)cc1`, the TGI in test [1], in test [2], in test [3], in [4], in test [6] and in [7] was over 100 µM in each case. In addition, the TGI in [8], in [9] and in test [10] was over 100 µM in each case.
